Measurements from patent US20100261753A1, “METHODS FOR PREVENTING AND/OR TREATING DEGENERATIVE DISORDERS OF THE CENTRAL NERVOUS SYSTEM” (AMICUS THERAPEUTICS, INC., priority 2009, published 2010).
Counter-ions that a name gives are not always drawn. Like-named read-outs stand apart in the source and are kept apart here. One block for each compound: values may come before it.

Tests used:
Rat pharmacokinetics = assay type: in vivo, Sprague-Dawley rats
Protocol: Pharmacokinetic (PK) data was obtained in rats to assess the bioavailability of test compound. In particular, the following PK parameters were calculated: bioavailability as measured by area under the Concentration/Time curve (AUC), fraction of dose available (% F; further defined below), clearance (CL), volume of distribution (Vd), and half-life (t½). For this purpose, 8-week old Sprague-Dawley male rats were given either a single intravenous (IV) dose equivalent to 3 mg/kg of free base or single escalating p.o. (gavage) doses of test compound equivalent to 10, 30, and 100 mg/kg of free base. Three rats were used per dosing group. Blood was collected over a 24-hr period. The time points for blood collection after intravenous administration were: 0, 2.5, 5, 10, 15, 30, 45 min, 1, 2, 4, 8, 12, and 24 hrs; time points for blood collection after p.o. administrations were: 0, 5, 15, 30, 45 min, 1, 2, 3, 4, 8, 12, and 24 hrs. Plasma samples were analyzed for compound levels by LC-MS/MS at PPD. Raw data was analyzed by non-compartmental analysis in Win-nonLin to calculate Vd, % F, CL, and […].

[1] = Compound concentration in brain, spleen and plasma samples of the GCase enhancement study; assay type: in vivo, mice (C57BL/6); conditions: male, C57BL/6, mouse, po, nine doses, 24-hour washout
Protocol: The ability of orally administered test compounds (the hydrochloride salt form of Compound A and Compound B) to elevate GCase levels as compared to reference compound, IFG-tartrate, was assessed in mice. […] Seven animals were used per dose. The dosing solutions were prepared in water. Compounds were administered over 2 weeks as follows: week 1, Mon-Fri (On), Sat-Sun (Off); week 2, Mon-Thu (On); necropsy on Friday. Thus, a total of 9 doses (dosing solutions prepared fresh every day) were given to each mouse, with a 24-hour washout between the last dose and necropsy.
Plasma was collected by spinning blood at 2700 g for 10 minutes at 4° C. Liver, spleen, lung, and brain tissues were removed, washed in cold PBS, blotted dry, flash frozen on dry ice, and stored at −80° C. until analysis. GCase levels were measured by homogenizing approximately 50 mg tissue in 500 μl McIlvane (MI) buffer (100 mM sodium citrate, 200 mM sodium phosphate dibasic, 0.25% sodium taurocholate, and 0.1% Triton X-100, pH 5.2) at pH 5.2 for 3-5 seconds on ice with a micro homogenizer. Homogenates were then incubated at room temperature without and with 2.5 mM conduritol-B-epoxide (CBE) for 30 min. Finally, 3.7 mM 4-methylumbeliferryl-β-glucoside (4-MUG) substrate was added and incubated at 37° C. for 60 min. Reactions were stopped by addition of 0.4 M glycine, pH 10.6. Fluorescence was measured on a plate reader for 1 sec/well using 355 nm excitation and 460 nm emission. Total protein was determined in lysates using the MicroBCA kit according to the manufacturer's instructions. A 4-methylumbelliferone (4-MU) standard curve ranging from 1.0 nM to 50 μM was run in parallel for conversion of raw fluorescence data to absolute GCase activity (in the presence and absence of CBE) and expressed as nanomoles of 4-MU released per milligram of protein per hour (nmol/mg protein/hr). GCase levels and protein levels were calculated using Microsoft Excel (Redmond, Wash.) and GraphPad Prism version 4.02.

lysosomal GCase = molecular target: T1, lysosomal GCase (Homo sapiens, UniProt P04062); assay: In situ lysosomal GCase inhibition and washout assay in fibroblasts from a normal subject; assay type: cell-based; conditions: for IC50: normal fibroblasts, 16-24 h incubation, PFBFDβGlu substrate; for In Situ Washout: washout time after treatment at IC90, single exponential fit
T1 construct: lysosomal GCase activity was assayed in situ using fibroblasts established from a normal subject; endogenous in cells; host or cells: fibroblasts established from a normal subject
T1 sequence (P04062 40-536): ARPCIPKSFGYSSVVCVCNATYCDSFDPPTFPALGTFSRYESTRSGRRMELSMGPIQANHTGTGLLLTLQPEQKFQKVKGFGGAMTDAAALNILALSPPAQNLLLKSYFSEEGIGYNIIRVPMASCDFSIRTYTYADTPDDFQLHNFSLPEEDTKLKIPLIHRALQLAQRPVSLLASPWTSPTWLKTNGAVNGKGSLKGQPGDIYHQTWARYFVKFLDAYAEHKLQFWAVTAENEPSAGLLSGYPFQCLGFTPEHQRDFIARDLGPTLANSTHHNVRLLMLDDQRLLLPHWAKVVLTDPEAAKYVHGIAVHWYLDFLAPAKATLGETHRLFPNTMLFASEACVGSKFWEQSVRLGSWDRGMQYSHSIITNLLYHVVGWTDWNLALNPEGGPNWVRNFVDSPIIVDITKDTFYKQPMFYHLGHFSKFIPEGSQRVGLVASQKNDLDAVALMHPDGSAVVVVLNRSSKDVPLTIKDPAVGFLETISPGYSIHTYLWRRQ
Protocol: For the dose-response assays, cells were incubated with the in situ substrate 5-(pentafluorobenzoylamino)fluorescein di-β-D-glucopyranoside (PFBFDβGlu) for 1 hour and subsequently lysed to determine the extent of substrate hydrolysis in the presence of compound. […] Inhibition was determined as the ratio of activity in the presence of compound to that in the absence of compound. […] Cells were washed extensively and incubated in drug-free medium to allow net compound efflux from cells. Cells were then tested for lysosomal GCase activity at 2 hour intervals over a total period of 8 hours following compound removal. The increase in activity over time was fitted with a single exponential function to determine the compound's washout time.

GCase = molecular target: T2, GCase (Homo sapiens, UniProt P04062); assay: GCase activity enhancement (EC50, Emax; Table 2B); assay type: cell-based
T2 sequence (P04062 40-536): T1 sequence (P04062 40-536)

[2] = male, Sprague-Dawley, plasma, IV, 3 mg/kg free base

SMILES: O[C@@H]1CNCC(CF)[C@H]1O (stereo in doubt) [Compound A, (3R,4R,5R)-5-(fluoromethyl)piperidine-3,4-diol]
CL (Rat pharmacokinetics; PO, 30 mg/kg free base): 66.82 ± 8.48 mL/min/kg | VD (Rat pharmacokinetics; PO, 30 mg/kg free base): 13.532 ± 3.291 L/kg | CL (Rat pharmacokinetics; PO, 100 mg/kg free base): 56.55 ± 3.48 mL/min/kg | VD (Rat pharmacokinetics; PO, 100 mg/kg free base): 13.101 ± 1.518 L/kg | Cmax (Rat pharmacokinetics; [2]): 7270 ± 139 ng/mL | Vd (Rat pharmacokinetics; [2]): 3.48 ± 0.232 L/kg | clearance (Rat pharmacokinetics; [2]): 27.8 mL/min/kg | AUC(0-t) (Rat pharmacokinetics; male, Sprague-Dawley, plasma, IV, 3 mg/kg free base (3.72 mg/kg salt)): 1800 ± 42.7 ng·h/mL | half-life (Rat pharmacokinetics; male, Sprague-Dawley, plasma, IV, 3 mg/kg free base, read-out: t1/2 (converted)): 1.4 ± 0.1 h | Cmax (Rat pharmacokinetics; male, Sprague-Dawley, plasma, PO, 10 mg/kg free base): 1290 ± 271 ng/mL | AUC(0-t) (Rat pharmacokinetics; male, Sprague-Dawley, plasma, PO, 10 mg/kg free base (12.4 mg/kg salt)): 2980 ± 228 ng·h/mL | bioavailability (Rat pharmacokinetics; male, Sprague-Dawley, plasma, PO, 10 mg/kg free base, read-out: % F): 50 ± 3.8% | half-life (Rat pharmacokinetics; male, Sprague-Dawley, plasma, PO, 10 mg/kg free base, read-out: t1/2 (converted)): 1.2 ± 0.4 h | Cmax (Rat pharmacokinetics; male, Sprague-Dawley, plasma, PO, 30 mg/kg free base): 2870 ± 355 ng/mL | AUC(0-t) (Rat pharmacokinetics; male, Sprague-Dawley, plasma, PO, 30 mg/kg free base (37.2 mg/kg salt)): 8250 ± 388 ng·h/mL | bioavailability (Rat pharmacokinetics; male, Sprague-Dawley, plasma, PO, 30 mg/kg free base, read-out: % F): 46 ± 2.5% | half-life (Rat pharmacokinetics; male, Sprague-Dawley, plasma, PO, 30 mg/kg free base, read-out: t1/2 (converted)): 2.3 ± 0.3 h | Cmax (Rat pharmacokinetics; male, Sprague-Dawley, plasma, PO, 100 mg/kg free base): 9390 ± 742 ng/mL | AUC(0-t) (Rat pharmacokinetics; male, Sprague-Dawley, plasma, PO, 100 mg/kg free base (124 mg/kg salt)): 29600 ± 1750 ng·h/mL | bioavailability (Rat pharmacokinetics; male, Sprague-Dawley, plasma, PO, 100 mg/kg free base, read-out: % F): 49 ± 2.7% | half-life (Rat pharmacokinetics; male, Sprague-Dawley, plasma, PO, 100 mg/kg free base, read-out: t1/2 (converted)): 2.6 ± 0.1 h | concentration at 24 h ([1]; brain, 10 mg/kg p.o., Table 3A): 124 ± 11 nM | concentration at 24 h ([1]; brain, 100 mg/kg p.o., Table 3A): 726 ± 51 nM | concentration at 24 h ([1]; plasma, 10 mg/kg p.o., Table 3C): 32 ± 2.4 nM | concentration at 24 h ([1]; plasma, 100 mg/kg p.o., Table 3C): 254 ± 73.5 nM | concentration at 24 h ([1]; spleen, 10 mg/kg p.o., Table 3B): 69 ± 6 nM | concentration at 24 h ([1]; spleen, 100 mg/kg p.o., Table 3B): 304 ± 63 nM

SMILES: O[C@@H]1CNCC(CF)[C@H]1O (stereo in doubt) [Compound A-HCl, (3R,4R,5R)-5-(fluoromethyl)piperidine-3,4-diol hydrochloride]
bioavailability (Rat pharmacokinetics; male, Sprague-Dawley, plasma, po, read-out: oral bioavailability): ~50% | half-life (Rat pharmacokinetics; male, Sprague-Dawley, plasma, read-out: half-life): 1 to 2.5 h | IC50 (lysosomal GCase): 17 ± 8 nM | In Situ Washout (lysosomal GCase): 6.6 ± 0.12 h | effect on GCase activity (GCase): concentration-dependent increase in GCase activity | enhancement of enzyme activity compared to IFG-tartrate (GCase): enhanced enzyme activity to the same maximum level at much lower concentration

IC50 (lysosomal GCase): 121 ± 7 nM | In Situ Washout (lysosomal GCase): 2.9 ± 0.22 h | EC50 (GCase): 9.6 ± 1 nM | Emax (GCase): 104 ± 3.4% | concentration at 24 h ([1]; brain, 10 mg/kg p.o., Table 4A): 246 ± 42 nM | concentration at 24 h ([1]; brain, 100 mg/kg p.o., Table 4A): 2070 ± 231 nM | concentration at 24 h ([1]; plasma, 10 mg/kg p.o., Table 4C): 104 ± 15 nM | concentration at 24 h ([1]; plasma, 100 mg/kg p.o., Table 4C): 1530 ± 601 nM | concentration at 24 h ([1]; spleen, 10 mg/kg p.o., Table 4B): 645 ± 214 nM | concentration at 24 h ([1]; spleen, 100 mg/kg p.o., Table 4B): 2160 ± 464 nM
SMILES: O[C@@H]1[C@@H](CCl)CNC[C@H]1O [Compound B, (3R,4R,5S)-5-(chloromethyl)piperidine-3,4-diol]
effect on GCase activity (GCase): concentration-dependent increase in GCase activity | enhancement of enzyme activity compared to IFG-tartrate (GCase): enhanced enzyme activity to the same maximum level at much lower concentration
